These results are taken from paper PMC11125453, “A Novel 2-Methoxyestradiol Derivative: Disrupting Mitosis Inhibiting Cell Motility and Inducing Apoptosis in HeLa Cells In Vitro” (Pharmaceutics, 2024).

One assay concerns the target T1, ERα (Homo sapiens, UniProt P03372).
T1 construct: T47D-ERE-Luc^Neo, an ERα-positive cell line, stably transfected with a luciferase reporter cassette; endogenous in cells; host or cells: T47D-ERE-Luc^Neo
T1 sequence (P03372 1-595): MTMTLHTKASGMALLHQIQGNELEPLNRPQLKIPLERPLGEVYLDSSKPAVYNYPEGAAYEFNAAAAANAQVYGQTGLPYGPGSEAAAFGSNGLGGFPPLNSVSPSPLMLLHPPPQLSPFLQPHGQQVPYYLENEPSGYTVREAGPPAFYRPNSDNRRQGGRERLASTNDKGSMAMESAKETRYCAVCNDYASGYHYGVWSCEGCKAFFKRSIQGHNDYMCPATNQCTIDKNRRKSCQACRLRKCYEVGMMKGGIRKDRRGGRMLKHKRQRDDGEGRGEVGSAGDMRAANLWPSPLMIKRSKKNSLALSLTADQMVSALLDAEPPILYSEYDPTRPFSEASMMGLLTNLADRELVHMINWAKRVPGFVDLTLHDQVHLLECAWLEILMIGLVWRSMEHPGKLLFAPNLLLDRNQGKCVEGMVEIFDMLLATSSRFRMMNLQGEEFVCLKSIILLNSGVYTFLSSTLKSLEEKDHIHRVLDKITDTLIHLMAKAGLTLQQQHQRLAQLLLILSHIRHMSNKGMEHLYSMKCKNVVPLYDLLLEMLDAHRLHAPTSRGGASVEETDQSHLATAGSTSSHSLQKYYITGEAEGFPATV
The assay is described as follows: Estrogenic activity luciferase reporter assay in T47D-ERE-Luc^Neo. In kind it is cell-based. As to conditions: 24 h incubation, read-out: EC50, oestrogenic activity (transcriptional activity of oestrogen-responsive luciferase reporter). The method, then: The in vitro oestrogenic activity of our test compound was determined by utilizing the T47D-ERE-Luc^Neo, an ERα-positive cell line, stably transfected with a luciferase reporter cassette. On the first day of the experiment, cells were seeded onto 96-well microplates in a density of 50,000 cells/well. After 72 h of incubation, the medium was changed to phenol red-free RPMI, containing 10% charcoal-stripped FBS. This step was repeated for another four consecutive days to deplete the intracellular oestrogen content. […]. After 24 h of incubation, the supernatant was removed from the wells and the One-Glo™ firefly luciferase reagent was added according to the manufacturer’s instructions (Promega Corp., Madison, WI, USA). Following a 5 min incubation period, the luciferase enzyme activity was measured using a luminometer (FLUOstar OPTIMA, BMG Labtech GmbH, Ortenberg, Germany). Each concentration was assayed in triplicates, repeated twice. Relative luminescence units (RLU) were normalised to percentage values, and sigmoidal concentration–response curves were fitted to the data points using GraphPad Prism 9.5.1 (GraphPad Software, San Diego, CA, USA).

Assay [1] has as its system HeLa cells. The assay is described as follows: Wound-healing assay. Particulars: 5.0 µM. In kind it is cell-based, human. The method, then: Due to the significant contribution of cell motility to tumour metastasis, we performed a wound-healing assay, utilizing a 2D model, to explore the antimigratory potential of compound 4a on HeLa cells. Special silicon inserts (Ibidi GmbH, Gräfelfing, Germany) were utilised, with 50,000 cells per well implanted on 12-well plates in a standard EMEM medium supplemented with 10% FBS. Following overnight incubation, the inserts were carefully removed, and the confluent monolayers were washed with PBS. Cells were then treated with sub-antiproliferative concentrations (1.0, 2.5 and 5.0 µM) of compound 4a in the EMEM medium containing 2% FBS. Images were then captured at 0, 24, and 48 h post-treatment using a Nikon Eclipse TS100 fluorescence microscope (Nikon Instruments Europe, Amstelveen, The Netherlands). Untreated cells served as the control, and the rate of wound closure (the decrease in size of the gaps devoid of cells) was measured using ImageJ software v1.54 (National Institutes of Health, Bethesda, MD, USA).

Another assay concerns tubulin. The assay is described as follows: Cell-free tubulin polymerisation assay. The assay is classed as biochemical. On the procedure: To assess the impact of test compound 4a on the microtubular system, a cell-free tubulin polymerisation assay was conducted using a commercially available kit (Cytoskeleton Inc., Denver, CO, USA), largely in accordance with manufacturer’s instructions, though with some modifications. The assay was performed in a pre-heated 96-well plate, with each condition tested in two parallel wells. Two wells were assigned as the experimental control and received 10 µL of general tubulin buffer (GTB), while the next two wells were assigned as the positive control and received a similar volume of 10 µM paclitaxel. Various concentrations of the test compound (50, 150, 300, and 600 µM) were added in similar volumes, and the polymerisation reaction was initiated by adding 100 µL of tubulin to each well. Absorbance readings were measured every minute for 60 min at 340 nm, following a kinetic measurement protocol. A similar experiment was repeated with the absence of glycerol in the reaction mixture and in exclusion of 50, 150 µM of our test compound. […] The maximum rate of tubulin polymerisation (Vmax) was determined as the highest difference between a set of three absorbance values at any two consecutive intervals.

For assay [2], the system named is NIH/3T3 cells. Details: method as in PMID 35091086. As to conditions: read-out: IC50 on non-cancerous mouse fibroblast (NIH/3T3) cells; cited from earlier work.
Another assay concerns T47D cells. The assay is described as follows: MTT assay, growth inhibition of T47D, 72 h. As to conditions: Homo sapiens, 72 h incubation. The assay is classed as cell-based. The method, then: The extent of the inhibition of cell proliferation by the test compound was determined using the MTT (3-(4,5-dimethylthiazol-2-yl)-2,5-diphenyltetrazolium bromide) assay. Exponentially growing HeLa cells were seeded into 96-well plates at a density of 1.0 × 10^4 cells per well in 100 µL of media and incubated for 24 h to facilitate cell attachment. Subsequently, the cells were treated with test compounds formulated in 100 µL of media at six different concentrations of compounds ranging, from 0.1 to 30 µmol. The control group received only media treatment. After 24 h of incubation, 22 µL of MTT solution (5 mg/mL in PBS; Duchefa Biochemie BV, Haarlem, The Netherlands) was added and incubated for 4 h at 37 °C in a humidified 5% CO2 environment. […] Absorbance measurements were taken at 545 nm using a microplate UV-VIS reader (SPECTRO star Nano, BMG Labtech GmbH, Offenburg, Germany), followed by the calculation of the percentage cell viability using the GraphPad Prism 5.01 (GraphPad Software, San Diego, CA, USA). […]
The MTT assay was conducted as described in Section 2.5, with the incubation time extended to 72 h. IC50 values were determined by fitting sigmoidal concentration–response curves using GraphPad Prism 9.5.1 (GraphPad Software, San Diego, CA, USA). […]

The test system of assay [3] is HeLa cells. The assay is described as follows: Boyden chamber invasion assay. The assay is classed as cell-based, human. Particulars: 5.0 µM, 24 h. The method, then:
Compound 4a’s capacity to inhibit tumour invasion was assessed using the Boyden chamber assay, a three-dimensional model, on a profoundly invasive HPV-18 positive cell line. The polyethylene terephthalate (PET) membrane (8 μm pore size) and the thin layer of the matrigel basement matrix in special Boyden chamber inserts (BioCoat™ Matrigel® Invasion Chambers, Corning Inc., Corning, NY, USA) were prehydrated (2 h, serum-free EMEM) and placed onto a 24-well plate. The cell suspension (50,000 cells/insert in 500 μL) prepared in the serum-free EMEM with sub-antiproliferative concentrations (1.0, 2.5, and 5.0 μM) of 4a was nested in the upper compartments. Untreated cells were used as controls, with the EMEM medium supplemented with 10% FBS, and served as a chemoattractant in the lower chambers. After 24 h of incubation, supernatants and non-invading cells were removed cautiously with a cotton swab. […] Subsequently, 4 images per chamber were taken with a Nikon Eclipse TS100 fluorescence microscope (Nikon Instruments Europe, Amstelveen, The Netherlands), and the number of invading cells were enumerated using ImageJ software (National Institutes of Health, Bethesda, MD, USA). The invasion rate was determined by comparing the number of invaded cells in the treated samples with the number of invaded cells in the untreated control samples.

Assay [4] relates to NIH/3T3 cells. Nature of the assay: Growth inhibition on non-cancerous mouse fibroblast cells, previous study. The assay is classed as cell-based. As to conditions: ratio of IC50 values of NIH/3T3 and HeLa.
Assay [5] relates to HeLa cells. On the set-up: method as in PMID 35091086. Particulars: HeLa cell line; cited from earlier work.
Assay [6] concerns HeLa cells. Nature of the assay: MTT assay for cell viability, 24 h. In kind it is cell-based, human. Particulars: concentrations corresponding the IC50 of 4a. On the procedure: The extent of the inhibition of cell proliferation by the test compound was determined using the MTT (3-(4,5-dimethylthiazol-2-yl)-2,5-diphenyltetrazolium bromide) assay. Exponentially growing HeLa cells were seeded into 96-well plates at a density of 1.0 × 10^4 cells per well in 100 µL of media and incubated for 24 h to facilitate cell attachment. Subsequently, the cells were treated with test compounds formulated in 100 µL of media at six different concentrations of compounds ranging, from 0.1 to 30 µmol. The control group received only media treatment. After 24 h of incubation, 22 µL of MTT solution (5 mg/mL in PBS; Duchefa Biochemie BV, Haarlem, The Netherlands) was added and incubated for 4 h at 37 °C in a humidified 5% CO2 environment. The medium was subsequently aspirated, and 100 µL of DMSO was added to dissolve the formazan crystals produced by the intact cell’s mitochondrial enzymes. The mixture was then mechanically shaken for 30 min. Absorbance measurements were taken at 545 nm using a microplate UV-VIS reader (SPECTRO star Nano, BMG Labtech GmbH, Offenburg, Germany), followed by the calculation of the percentage cell viability using the GraphPad Prism 5.01 (GraphPad Software, San Diego, CA, USA). All in vitro experiments were performed twice with five replicates. Stock solutions of the tested substances (10 mM) were prepared in DMSO.
(Formazan colour is commonly taken as a measure of viable cells.)

Assay [7] deals with HeLa cells. Nature of the assay: Hoechst 33258-propidium iodide fluorescent double staining. In kind it is cell-based, human. Particulars: 1.0, 2.5, 5.0 and 10 μM, 48 h. The method, then:
Fluorescence staining was conducted to observe the morphological changes induced by the apoptotic process in cells treated with the compound 4a. HeLa cell suspension was seeded into 6-well plates at a density of 150,000 cells per well and allowed to repose for 24 h before exposure to different concentrations of our test substance (1.0, 2.5, 5.0, and 10 μM) for 48 h. To distinguish apoptotic and necrotic cell populations, the cells were stained with lipophilic Hoechst 33258 (1 μg/mL, HO) and hydrophilic propidium iodide (3 μg/mL, PI) for 90 min at 37 °C in a CO2 incubator. Following the removal of the remaining dye-containing medium, a Nikon Eclipse TS100 fluorescence microscope (Nikon Instruments Europe, Amstelveen, The Netherlands) was used to capture at least 4 images per condition. The microscope was equipped with suitable optical blocks for Hoechst 33258 (excitation: 360/40 nm bandpass filter, emission: 460/50 nm bandpass filter, and 400 nm dichromatic mirror) and propidium iodide (excitation: 500/20 nm bandpass filter, emission: 520 nm long pass filter, and 515 nm dichromatic mirror). This technique enables differentiation between early apoptosis and secondary necrosis by examining the nuclear morphology and membrane integrity of cells. The HO dye solution readily permeates into the nuclei of all cells, resulting in a uniform blue staining in the nuclei of the viable cells. […]

For assay [8], the system named is HeLa cells. Nature of the assay: Cell cycle analysis using flow cytometry. The assay is classed as cell-based, human. Particulars: 18 h incubation; 1.25, 2.5, 5.0 and 10 µM. On the procedure: Cell cycle analysis was performed to elucidate a possible mechanism of action of the compound 4a. Cells were seeded in a 12-well plate at a density of 120,000 cells per well and incubated overnight. […] The supernatant from each treatment was collected separately, and the cells were washed with PBS and detached using trypsin. The resulting supernatant containing the cells was centrifuged at 1300 rpm for 5 min. The cells were then washed with PBS and fixed with 70% ice-cold ethanol at −20 °C for 20 min. To stain the DNA content, the cells were treated with 300 µL of staining solution, which consisted of 10 µg/mL PI, 0.1% sodium citrate, 0.1% triton-X, and 10 µg/mL RNase-A, all dissolved in injectable water. The staining process was carried out in the dark for 30 min. The cells were subjected to analysis using a flow cytometer (CytoFLEX-V0-B4-RO, Beckman Coulter, Brea, CA, USA) with a minimum of 10,000 events per sample being evaluated during each analysis. The data obtained were processed using ModFit LT 3.3.11 software (Verity Software House, Topsham, ME, USA). Untreated cells were utilised as the control group. Apoptotic cells were identified as the hypodiploid (subG1) cell population. The cell cycle analysis experiments were conducted twice, with three parallel samples for each condition.

The subject of a further assay is MCF7 cells. Nature of the assay: MTT assay, growth inhibition of MCF7, 72 h. The assay is classed as cell-based. As to conditions: Homo sapiens, 72 h incubation.

The EC50 is the concentration giving half of the maximal effect. For the compound `CN(C)Cc1cc2c(cc1O)CC[C@@H]1[C@@H]2CC[C@]2(C)[C@@H](O)CC[C@@H]12` [Compound 4a, 2-[(dimethylamino)methyl]-oestradiol], the EC50 at ERα turned out to be 0.653 µM. The “reduction in the migratory capacity of HeLa cells relative to the control” value was 53.9% in the assay on HeLa cells [1] (24 h of treatment) and 39.6% in the assay with HeLa cells [1] (48 h of treatment). In the assay with tubulin (absence of glycerol), the “concentration of maximum tubulin polymerisation effect” value was “approximately 300 µM”. Besides, the “effect on tubulin polymerisation relative to the control” value in the assay with tubulin (all tested concentrations (50, 150, 300, 600 µM), presence or absence of glycerol) is given as “significant increase in tubulin polymerisation”. Further, the IC50 in the assay with NIH/3T3 cells [2] is 70.4 µM; in the assay with T47D cells, 16.9 µM; with HeLa cells [5], 4.53 µM; with MCF7 cells, 19.2 µM. Further, the “decrease in number of invading cells (anti-invasive activity) vs control” value in the assay on HeLa cells [3] is given as “more than 95%”. The “selectivity index (SI)” value with NIH/3T3 cells [4] is listed as 15.6. In the assay on HeLa cells [6], the “cell viability change after 24 h incubation” value is “no significant alteration in cell viability”. The “nuclei emitting intense blue fluorescence (DNA condensation, early apoptosis)” value in the assay with HeLa cells [7] was “concentration-dependent escalation”. Besides, the “effect on G2/M phase population” value with HeLa cells [8] is given as “significant cell arrest at the G2/M phase”. Besides, the “effect on hypodiploid sub-G1 population” value with HeLa cells [8] is “significant rise in the hypodiploid sub-G1 population”.

Consider `COc1cc2c(cc1O)CC[C@@H]1[C@@H]2CC[C@]2(C)[C@@H](O)CC[C@@H]12` [Compound 2ME, 2-methoxyestradiol], for which the EC50 on ERα turned out to be 0.0111 µM.
